According to patent US9310353B2, “Method for evaluating bioavailable zinc” (The Procter & Gamble Company, priority 2014, dated 2016):
Marks after values point to notes of the source that are not given here.

Columns and labels:
TR146 cells [1] = assay: Flux of Zn salts in TR146 cells (FLIPR, FluoZin-3 AM); type: cell-based; conditions: for % of Zn Lactate Flux: Zn-lactate = 100%
Experimental: (§1) Measurement of Zn uptake into TR146 cells was done using a FLIPR (Fluorescent Imaging Plate Reader) assay. The assay was established using a cell membrane permeable version of Zn dye, FluoZin-3 AM (Life Technologies, Grand Island, N.Y.). TR146 cells were grown in 15 ml growth medium [high glucose DMEM (Dulbecco's Modification of Eagle's Medium) supplemented with 10% FBS (fetal bovine serum), 100 units/ml penicillin and 100 μg/ml streptomycin in a 75 cm^2 flask for 3 days at 37° C. in a mammalian cell culture incubator set at 5% CO2. Cells were detached with addition of 10 ml of PBS (phosphate buffered saline) and gentle hand shaking, and transferred to a 50 ml tube and centrifuged at 850 rpm for 3 minutes to remove PBS. After centrifugation, a pellet of cells was formed in the bottom of the tube separating them from the supernatant solution. The supernatant was discarded and the cell pellet suspended in 1 ml of fresh growth medium to which 5 μl (12.5 μg) of FluoZin-3 AM Zn indicator was added and incubated for 30 minutes with gentle shaking. FluoZin-3 AM is a fluorescent dye used for quantifying intracellular Zn concentrations in the 1 to 100 nM to range. At the end of the 30 minutes, 45 ml of assay buffer [1×HBSS (Hank's Balanced Salt Solution), 20 mM HEPES (4-(2-Hydroxyethyl)-1-piperazineethanesulfonic acid)] was added to wash the cells and the resulting combination was then centrifuged at 850 rpm for 3 minutes to remove excess buffer and FluoZin-3 AM Zn indicator. The pelleted cells were re-suspended in 10 ml assay buffer and 90 μl aliquots (˜50,000 cells) per well delivered to a 96-well assay plate and the plate is placed into a fluorometric imaging plate reader (FLIPR384 from Molecular Devices, Sunnyvale, Calif.) and basal fluorescence recorded (excitation wave length 494 nm and emission wave length 516 nm). Then Zn salt (for example Zn-lactate) was added and the increase in fluorescence was recorded for 5 minutes. Zn-flux observed with different Zn salts with Zn-lactate value as reference (100%) is shown below in TABLE 2.

TR146 cells [2] = assay: Chelant effects on Zn flux via TR146 measurements (FLIPR); type: cell-based; conditions: relative to the flux of the Zn lactate control; for 50 micro M Chelant Control / 5 micro M Chelant Control: chelant alone, no Zn
Excerpt: These combinations were then placed into growth media and measurement of Zn uptake into TR146 cells was done using a FLIPR (Fluorescent Imaging Plate Reader) assay, as described in EXAMPLE 2.

TR146 cells [3] = assay: Screening of Zn indicators by Zn uptake into TR146 cells (FLIPR); type: cell-based; conditions: Zn indicators screened using TR146 cells
Experimental: As with most metal ions, the choice of indicator is dependent on the cell type, ion channel, and metal specificity.
(§2) To screen the Zn indicators, measurement of Zn uptake into TR146 cells was done using a FLIPR (Fluorescent Imaging Plate Reader) assay. The assay was established using a cell membrane permeable version of Zn-indicator, FluoZin-3 AM (Life Technologies, Grand Island, N.Y.). TR146 cells were grown to confluency in 15 ml growth medium [high glucose DMEM (Dulbecco's Modification of Eagle's Medium) supplemented with 10% FBS (fetal bovine serum), 100 units/ml penicillin and 100 μg/ml streptomycin in a 75 cm^2 flask for 3 days at 37° C. in a mammalian cell culture incubator set at 5% CO2. […] FluoZin-3 AM is a fluorescent dye used for quantifying intracellular Zn concentrations in the 1 to 100 nM to range. […] The pelleted cells were re-suspended in 10 ml assay buffer and 90 μl aliquots (˜50,000 cells) per well delivered to a 96-well assay plate and the plate was placed into a fluorometric imaging plate reader (FLIPR384 from Molecular Devices, Sunnyvale, Calif.) and basal fluorescence recorded (excitation wave length 494 nm and emission wave length 516 nm). Then Zn salt (for example Zn-lactate) was added and the increase in fluorescence was recorded for 5 minutes. […]

[4] = read-out: Affinity Kd (Zn^2+); cited from earlier work
TR146 cells [5] = assay: Polyquats blocking Zn uptake into TR146 cells (FLIPR); type: cell-based; conditions: Control Zn lactate
Experimental: as §1, with “TABLE 2. […]” for “TABLE 2.”

TR146 cells [6] = assay: Bioavailability of Zn from formulated dentifrices and rinses, Zn uptake by TR146 cells (FLIPR); type: cell-based; conditions: 0.01% Dentifrices A-D tested on the TR146 cells; Zn Lactate Control = 100%
Experimental: as §2, with “Measurement of” for “To screen the Zn indicators, measurement of”, “of Zn dye,” for “of Zn-indicator,”, “grown” for “grown to confluency”, “CO2. Cells were detached with addition of 10 ml of PBS (phosphate buffered saline) and gentle hand shaking, and transferred to a 50 ml tube and centrifuged at 850 rpm for 3 minutes to remove PBS.” for “CO2.”, “plate is” for “plate was”

TR146 cells [7] = assay: Effects of cationic polymers and dentifrice binders on uptake of zinc lactate by TR146 cells; type: cell-based; conditions: 50 μM Zn Lactate alone (reference)
Excerpt: After centrifugation, a pellet of cells was formed in the bottom of the tube separating them from the supernatant solution.

TR146 cells [8] = assay: Competitive inhibition of Zn flux from zinc chloride by amine polymers in TR146 cells; type: cell-based; conditions: ZnCl2 140 uM alone (reference)
Experimental: as §2, with “Measurement of” for “To screen the Zn indicators, measurement of”, “of Zn dye,” for “of Zn-indicator,”, “grown” for “grown to confluency”, “CO2. Cells were detached with addition of 10 ml of PBS (phosphate buffered saline) and gentle hand shaking, and transferred to a 50 ml tube and centrifuged at 850 rpm for 3 minutes to remove PBS.” for “CO2.”, “plate is” for “plate was”

[9] = Zn salt concentration Saturated

Question: For `CC(=O)[O-].CC(=O)[O-].[Zn+2]` [ZnAcetate], which “Fluorescence Unit” value (TR146 cells [1]; Zn salt concentration 10 uM) is on record?
Answer: Its value is 48547.79.

Question: And the “% of Zn Lactate Flux” value (TR146 cells [1]; Zn salt concentration 10 uM)?
Answer: Its value is 102.72%.

Question: What does the source list for `[O-2].[Zn+2]` [ZnOxide]?
Answer: Fluorescence Unit (TR146 cells [1]; [9]): 50391.21; % of Zn Lactate Flux (TR146 cells [1]; [9]): 106.62%

Question: Which “50 micro M Chelant Control” value (TR146 cells [2]) does the source give for `O=P1([O-])OP(=O)([O-])OP(=O)([O-])OP(=O)([O-])OP(=O)([O-])OP(=O)([O-])O1.[Na+].[Na+].[Na+].[Na+].[Na+].[Na+]` [Sodium Hexametaphosphate] here?
Answer: The value was 0.00%.

Question: And the “Zn flux, 5 micro M Chelant + 5 micro M Zn lactate” value (TR146 cells [2])?
Answer: Its value is 105.02%.

Question: What about the “Zn flux, 50 micro M Chelant + 50 micro M Zn lactate” value (TR146 cells [2]) of the same molecule?
Answer: Its value is 63.81%*.

Question: Which results are given for `O=P(O)(O)OP(=O)(O)OP(=O)(O)O` [Sodium tripolyphosphate]?
Answer: 5 micro M Chelant Control (TR146 cells [2]): 0.00%; 50 micro M Chelant Control (TR146 cells [2]): 0.00%; Zn flux, 5 micro M Chelant + 5 micro M Zn lactate (TR146 cells [2]): 92.99%; Zn flux, 50 micro M Chelant + 50 micro M Zn lactate (TR146 cells [2]): 0.00%; Zn flux, 50 micro M Chelant + 50 micro M Zn lactate (TR146 cells [2]; listed as sodium tripolyphosphate): did not allow for any measureable levels of Zn to be detected

Question: For `O=C([O-])C(=O)[O-].[Zn+2]` [ZnOxalate], which “Fluorescence Unit” value (TR146 cells [1]; [9]) is on record?
Answer: Its value is 55389.93.

Question: And the “% of Zn Lactate Flux” value (TR146 cells [1]; [9])?
Answer: Its value is 117.2%.

Question: For `O=P([O-])([O-])[O-].O=P([O-])([O-])[O-].[Zn+2].[Zn+2].[Zn+2]` [ZnPhosphate], which “Fluorescence Unit” value (TR146 cells [1]; [9]) is on record?
Answer: The value was 49686.65.

Question: What about the “% of Zn Lactate Flux” value (TR146 cells [1]; [9]) of the same molecule?
Answer: The value was 105.13%.

Question: Which results are given for `COc1ccc(N(CC(=O)O)CC(=O)O)c(OCCOc2cc(-c3c4cc(F)c(=O)cc-4oc4cc(O)c(F)cc34)ccc2NCC(=O)O)c1` [FluoZin-3]?
Answer: affinity for the flux of Zn into the TR146 cell line (TR146 cells [3]): most affinity for the flux of Zn into the TR146 cell line; Kd [4]: 15 nM

Question: Which “5 micro M Chelant Control” value (TR146 cells [2]) does the source give for `O=P(O)(O)O[C@H]1[C@H](OP(=O)(O)O)[C@@H](OP(=O)(O)O)[C@H](OP(=O)(O)O)[C@@H](OP(=O)(O)O)[C@H]1OP(=O)(O)O` [Phytic acid] here?
Answer: Its value is 0.00%.

Question: And the “50 micro M Chelant Control” value (TR146 cells [2])?
Answer: Its value is 0.00%.

Question: What about the “Zn flux, 5 micro M Chelant + 5 micro M Zn lactate” value (TR146 cells [2]) of the same molecule?
Answer: The value was 20.07%.

Question: What about the “Zn flux, 50 micro M Chelant + 50 micro M Zn lactate” value (TR146 cells [2]) of the same molecule?
Answer: The value was 33.87%.

Question: With `O=S(=O)([O-])[O-].[Zn+2]` [ZnSO4] as the molecule, how does the “Fluorescence Unit” value (TR146 cells [1]; Zn salt concentration 1 mM) read?
Answer: Its value is 47853.41.

Question: And the “% of Zn Lactate Flux” value (TR146 cells [1]; Zn salt concentration 1 mM)?
Answer: Its value is 101.25%.

Question: For `NCC(=O)[O-].NCC(=O)[O-].[Zn+2]` [ZnGlycinate], which “Fluorescence Unit” value (TR146 cells [1]; Zn salt concentration 4.40%) is on record?
Answer: Its value is 41086.61.

Question: What about the “% of Zn Lactate Flux” value (TR146 cells [1]; Zn salt concentration 4.40% (206 mM)) of the same molecule?
Answer: Its value is 86.93%.

Question: With `O=C([O-])[C@H](O)[C@@H](O)[C@H](O)[C@H](O)CO.[Na+]` [Sodium D-gluconate] as the molecule, how does the “5 micro M Chelant Control” value (TR146 cells [2]) read?
Answer: Its value is 1.51%.

Question: What about the “50 micro M Chelant Control” value (TR146 cells [2]) of the same molecule?
Answer: The value was 0.00%.

Question: What about the “Zn flux, 5 micro M Chelant + 5 micro M Zn lactate” value (TR146 cells [2]) of the same molecule?
Answer: The value was 101.31%.

Question: What about the “Zn flux, 50 micro M Chelant + 50 micro M Zn lactate” value (TR146 cells [2]) of the same molecule?
Answer: The value was 112.99%.

Question: Which results are given for `CC(O)C(=O)[O-].CC(O)C(=O)[O-].[Zn+2]` (centres unmarked) [Zn Lactate]?
Answer: Fluorescent Counts with no Zn (TR146 cells [5]; no quat): 24.5; Fluorescent counts with Zn (TR146 cells [5]; no quat): 1774.8; % Reduction compared to Zn control (TR146 cells [5]; no quat (reference)): 0%; % of Zn Lactate Control (% Zn uptake by TR146 cells) (TR146 cells [6]): 100%; Zn flux, Zn Only (TR146 cells [2]; No chelant, 50 micro M Zn Lactate): 100%*; Fluorescence Units (percentage of zinc lactate) (TR146 cells [7]): 100%

Question: With `[O-][n+]1ccccc1[S-].[O-][n+]1ccccc1[S-].[Zn+2]` [ZnPyrithione] as the molecule, how does the “Fluorescence Unit” value (TR146 cells [1]; Zn salt concentration 10 mM) read?
Answer: The value was 50467.87.

Question: What about the “% of Zn Lactate Flux” value (TR146 cells [1]; Zn salt concentration 10 mM) of the same molecule?
Answer: Its value is 106.78%.

Question: What does the source list for `[Cl-].[Cl-].[Zn+2]` [ZnCl2]?
Answer: Fluorescence Unit (TR146 cells [1]; Zn salt concentration 1 mM): 47853.41; % of Zn Lactate Flux (TR146 cells [1]; Zn salt concentration 1 mM): 101.25%; Zn Flux as a percentage of the Zn Chloride Control (TR146 cells [8]): 100%

Question: What does the source list for `O=C([O-])CC(O)(CC(=O)[O-])C(=O)[O-].[Na+].[Na+].[Na+]` [Sodium citrate]?
Answer: 5 micro M Chelant Control (TR146 cells [2]): 0.00%; 50 micro M Chelant Control (TR146 cells [2]): 0.00%; Zn flux, 5 micro M Chelant + 5 micro M Zn lactate (TR146 cells [2]): 104.83%; Zn flux, 50 micro M Chelant + 50 micro M Zn lactate (TR146 cells [2]): 43.63%

Question: With `O=P([O-])(O)OP(=O)([O-])O.[Na+].[Na+]` [Sodium acid pyrophosphate] as the molecule, how does the “5 micro M Chelant Control” value (TR146 cells [2]) read?
Answer: The value was 0.00%.

Question: What about the “50 micro M Chelant Control” value (TR146 cells [2]) of the same molecule?
Answer: Its value is 0.00%.

Question: And the “Zn flux, 5 micro M Chelant + 5 micro M Zn lactate” value (TR146 cells [2])?
Answer: Its value is 82.87%.

Question: What about the “Zn flux, 50 micro M Chelant + 50 micro M Zn lactate” value (TR146 cells [2]) of the same molecule?
Answer: The value was 0.00%.

Question: And the “Zn flux, 50 micro M Chelant + 50 micro M Zn lactate” value (TR146 cells [2]; listed as sodium acid pyrophosphate)?
Answer: Its value is “did not allow for any measureable levels of Zn to be detected”.
